According to ChEMBL document CHEMBL6087387, “Carbon Monoxide as a Potential Therapeutic Agent: A Molecular Analysis of Its Safety Profiles” (J Med Chem, 2024):

Columns and labels:
[1] = Plasma concentration in rat at 30 mg/kg, po after 2 hrs
[2] = Plasma concentration in rat at 250 mg/kg, po after 2 hrs; assay type: ADME, organism-based
[3] = Plasma concentration in rat at 100 mg/kg, po after 2 hrs; assay type: ADME, organism-based

Compound	concentration at 2 h [2]	concentration at 2 h [3]	further results
COc1ccc2cc([C@H](C)C(=O)O)ccc2c1 [NAPROXEN]			concentration at 2 h [1]: > 300 µM
O=C(O)c1cn(C2CC2)c2cc(N3CCNCC3)c(F)cc2c1=O [CIPROFLOXACIN]	3.8 µM		
COc1cccc2c1C(=O)c1c(O)c3c(c(O)c1C2=O)C[C@@](O)(C(=O)CO)C[C@@H]3O[C@H]1C[C@H](N)[C@H](O)[C@H](C)O1 [DOXORUBICIN]		1.15 µM	
O=c1[nH]cc(F)c(=O)[nH]1 [FLUOROURACIL]	420 µM		
CC(=O)O[C@H]1C(=O)[C@@]2(C)[C@H]([C@H](OC(=O)c3ccccc3)[C@]3(O)C[C@H](OC(=O)[C@H](O)[C@@H](NC(=O)c4ccccc4)c4ccccc4)C(C)=C1C3(C)C)[C@]1(OC(C)=O)CO[C@@H]1C[C@@H]2O [PACLITAXEL]		3.1 µM	
